How the values were obtained:
Format in all cases: in vivo
[1] = tested on: umbrella sedge (Cyperus difformis); experiment: Test B flooded paddy test; details: for Plant response rating, Sedge, Umbrella: Flood (flooded paddy test), 13 to 15 days; for Sedge, Umbrella plant response rating: Flood, 31 g ai/ha, scale 0 to 100 (0 no effect, 100 complete control); for Plant response rating, Flood, Sedge, Umbrella: 250 g ai/ha, flooded paddy test, visual rating on 0 to 100 scale (0 no effect, 100 complete control) after 13 to 15 days
Method in brief: (§1)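 Ratings are visual, 0–100 (100 = complete control), taken versus untreated controls 13 to 15 days after treatment in the greenhouse. Compound went straight into paddy water held 3 cm above soil, applied to 2-leaf-stage plants of four species.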

[2] = tested on: barnyardgrass (Echinochloa crus-galli); experiment: Test B flooded paddy test; details: for Plant response rating, Barnyardgrass: Flood (flooded paddy test), 13 to 15 days; for Barnyardgrass plant response rating: Flood, 31 g ai/ha, scale 0 to 100 (0 no effect, 100 complete control); for Plant response rating, Flood, Barnyardgrass: 250 g ai/ha, flooded paddy test, visual rating on 0 to 100 scale (0 no effect, 100 complete control) after 13 to 15 days
Method in brief: as §1

rice (Oryza sativa) = experiment: Test B flooded paddy test; details: for Plant response rating, Rice: Flood (flooded paddy test), 13 to 15 days; for Rice plant response rating: Flood, 31 g ai/ha, scale 0 to 100 (0 no effect, 100 complete control); for Plant response rating, Flood, Rice: 250 g ai/ha, flooded paddy test, visual rating on 0 to 100 scale (0 no effect, 100 complete control) after 13 to 15 days
Method in brief: as §1

[3] = tested on: ducksalad (Heteranthera limosa); experiment: Test B flooded paddy test; details: for Plant response rating, Ducksalad: Flood (flooded paddy test), 13 to 15 days; for Ducksalad plant response rating: Flood, 31 g ai/ha, scale 0 to 100 (0 no effect, 100 complete control); for Plant response rating, Flood, Ducksalad: 250 g ai/ha, flooded paddy test, visual rating on 0 to 100 scale (0 no effect, 100 complete control) after 13 to 15 days
Method in brief: as §1

[4] = tested on: giant foxtail (Setaria faberii); experiment: Test A pre-/postemergence plant response
Method in brief: (§2)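 Greenhouse pots of loam/sand received directed preemergence soil sprays or postemergence sprays (plants 2–10 cm, 1–2 leaf stage), compounds formulated in non-phytotoxic solvent with surfactant. Injury was rated visually versus untreated controls after about ten days on a 0 (no effect) to 100 (complete control) scale.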

[5] = tested on: morningglory (Ipomoea spp.); experiment: Test A pre-/postemergence plant response
Method in brief: as §2

[6] = tested on: barnyardgrass (Echinochloa crus-galli); experiment: Test A pre-/postemergence plant response; details: for Barnyardgrass plant response rating: visual injury, 0 to 100 scale (0 no effect, 100 complete control), approx. ten days
Method in brief: as §2

[7] = tested on: wheat (Triticum aestivum); experiment: Test A pre-/postemergence plant response
Method in brief: as §2

corn (Zea mays) = experiment: Test A pre-/postemergence plant response; details: for Corn plant response rating: visual injury, 0 to 100 scale (0 no effect, 100 complete control), approx. ten days
Method in brief: as §2

[8] = tested on: velvetleaf (Abutilon theophrasti); experiment: Test A pre-/postemergence plant response
Method in brief: as §2

[9] = tested on: pigweed (Amaranthus retroflexus); experiment: Test A pre-/postemergence plant response
Method in brief: as §2

[10] = tested on: large crabgrass (Digitaria sanguinalis); experiment: Test A pre-/postemergence plant response; details: for Crabgrass, Large plant response rating: visual injury, 0 to 100 scale (0 no effect, 100 complete control), approx. ten days
Method in brief: as §2

[11] = 125 g ai/ha, scale 0 to 100, 0 is no effect, 100 is complete control
[12] = Postemergence, 125 g ai/ha, 0 to 100 scale where 0 is no effect and 100 is complete control
[13] = Postemergence, 500 g ai/ha, visual injury, 0 to 100 scale (0 no effect, 100 complete control), approx. ten days
[14] = Preemergence, 125 g ai/ha, 0 to 100 scale, 0 = no effect, 100 = complete control
[15] = Preemergence, 500 g ai/ha, 0 to 100 scale, 0 = no effect, 100 = complete control
[16] = 62 g ai/ha, scale of 0 to 100 where 0 is no effect and 100 is complete control
[17] = Postemergence, 125 g ai/ha, visual injury, 0 to 100 scale (0 no effect, 100 complete control), approx. ten days
[18] = Preemergence, 125 g ai/ha, 0 to 100 scale where 0 is no effect and 100 is complete control, approximately ten days

O=C1CCCC(O)=C1C(=O)c1cnc(-c2cc(F)cc(F)c2)n(CC2CCCO2)c1=O (stereo not drawn) [Compound 180]
Plant response rating, Sedge, Umbrella [1, 11]: 65 | Sedge, Umbrella plant response rating [1]: 20 | Plant response rating, Barnyardgrass [2, 11]: 15 | Barnyardgrass plant response rating [2]: 0 | Plant response rating, Rice (rice (Oryza sativa); [11]): 30 | Rice plant response rating (rice (Oryza sativa)): 15 | Plant response rating, Ducksalad [3, 11]: 75 | Ducksalad plant response rating [3]: 60 | Plant response rating, Foxtail, Giant [4, 12]: 70 | Foxtail, Giant plant response rating [4, 13]: 100 | Plant response rating, Foxtail, Giant [4, 14]: 30 | Plant response rating, Foxtail, Giant [4, 15]: 70 | Plant response rating, Morningglory [5, 12]: 40 | Morningglory plant response rating [5, 13]: 100 | Plant response rating, Morningglory [5, 14]: 0 | Plant response rating, Barnyardgrass [6, 12]: 90 | Barnyardgrass plant response rating ([6]; Postemergence, 500 g ai/ha): 100 | Plant response rating, Barnyardgrass [6, 14]: 30 | Plant response rating, Barnyardgrass [6, 15]: 80 | Plant response rating, Wheat [7, 12]: 0 | Wheat plant response rating [7, 13]: 30 | Plant response rating, Wheat [7, 14]: 0 | Plant response rating, Wheat [7, 15]: 20 | Plant response rating, Corn (corn (Zea mays); [12]): 10 | Corn plant response rating (corn (Zea mays); Postemergence, 500 g ai/ha): 40 | Plant response rating, Corn (corn (Zea mays); [14]): 0 | Plant response rating, Corn (corn (Zea mays); [15]): 0 | Plant response rating, Velvetleaf [8, 12]: 100 | Velvetleaf plant response rating [8, 13]: 100 | Plant response rating, Velvetleaf [8, 14]: 80 | Plant response rating, Velvetleaf [8, 15]: 100 | Plant response rating, Pigweed [9, 12]: 100 | Pigweed plant response rating [9, 13]: 100 | Plant response rating, Pigweed [9, 14]: 90 | Plant response rating, Pigweed [9, 15]: 100 | Plant response rating, Crabgrass, Large [10, 12]: 90 | Crabgrass, Large plant response rating ([10]; Postemergence, 500 g ai/ha): 100 | Plant response rating, Crabgrass, Large [10, 14]: 80 | Plant response rating, Crabgrass, Large [10, 15]: 100

CCc1ccc(-n2c(-c3cccc(F)c3)ncc(C(=O)C3=C(O)CCCC3=O)c2=O)cc1 [Compound 204]
Plant response rating, Flood, Sedge, Umbrella [1]: 95 | Plant response rating, Sedge, Umbrella [1, 16]: 75 | Plant response rating, Sedge, Umbrella [1, 11]: 90 | Sedge, Umbrella plant response rating [1]: 70 | Plant response rating, Flood, Barnyardgrass [2]: 60 | Plant response rating, Barnyardgrass [2, 16]: 15 | Plant response rating, Barnyardgrass [2, 11]: 25 | Barnyardgrass plant response rating [2]: 10 | Plant response rating, Flood, Rice (rice (Oryza sativa)): 60 | Plant response rating, Rice (rice (Oryza sativa); [16]): 0 | Plant response rating, Rice (rice (Oryza sativa); [11]): 0 | Rice plant response rating (rice (Oryza sativa)): 0 | Plant response rating, Flood, Ducksalad [3]: 100 | Plant response rating, Ducksalad [3, 16]: 70 | Plant response rating, Ducksalad [3, 11]: 90 | Ducksalad plant response rating [3]: 50 | Plant response rating, Foxtail, Giant [4, 12]: 30 | Foxtail, Giant plant response rating [4, 13]: 100 | Plant response rating, Foxtail, Giant [4, 14]: 20 | Plant response rating, Foxtail, Giant [4, 15]: 90 | Plant response rating, Morningglory [5, 12]: 30 | Morningglory plant response rating [5, 13]: 100 | Plant response rating, Morningglory [5, 14]: 0 | Plant response rating, Morningglory [5, 15]: 80 | Plant response rating, Barnyardgrass [6, 12]: 100 | Barnyardgrass plant response rating ([6]; Postemergence, 500 g ai/ha): 100 | Plant response rating, Barnyardgrass [6, 14]: 30 | Plant response rating, Barnyardgrass [6, 15]: 80 | Plant response rating, Wheat [7, 12]: 0 | Wheat plant response rating [7, 13]: 40 | Plant response rating, Wheat [7, 14]: 20 | Plant response rating, Wheat [7, 15]: 40 | Plant response rating, Corn (corn (Zea mays); [12]): 0 | Corn plant response rating (corn (Zea mays); Postemergence, 500 g ai/ha): 10 | Plant response rating, Corn (corn (Zea mays); [14]): 20 | Plant response rating, Corn (corn (Zea mays); [15]): 20 | Plant response rating, Velvetleaf [8, 12]: 100 | Velvetleaf plant response rating [8, 13]: 100 | Plant response rating, Velvetleaf [8, 14]: 50 | Plant response rating, Velvetleaf [8, 15]: 90 | Plant response rating, Pigweed [9, 12]: 100 | Pigweed plant response rating [9, 13]: 100 | Plant response rating, Pigweed [9, 14]: 100 | Plant response rating, Pigweed [9, 15]: 100 | Plant response rating, Crabgrass, Large [10, 12]: 60 | Crabgrass, Large plant response rating ([10]; Postemergence, 500 g ai/ha): 100 | Plant response rating, Crabgrass, Large [10, 14]: 40 | Plant response rating, Crabgrass, Large [10, 15]: 100

O=C(C1=C(O)C2CCC(C2)C1=O)c1cnc(-c2cc(F)cc(F)c2)n(-c2ccccc2)c1=O (stereo not drawn) [Compound 246]
Plant response rating, Flood, Sedge, Umbrella [1]: 100 | Plant response rating, Sedge, Umbrella [1, 16]: 85 | Plant response rating, Sedge, Umbrella [1, 11]: 100 | Sedge, Umbrella plant response rating [1]: 0 | Plant response rating, Flood, Barnyardgrass [2]: 60 | Plant response rating, Barnyardgrass [2, 16]: 0 | Plant response rating, Barnyardgrass [2, 11]: 20 | Barnyardgrass plant response rating [2]: 0 | Plant response rating, Flood, Rice (rice (Oryza sativa)): 65 | Plant response rating, Rice (rice (Oryza sativa); [16]): 30 | Plant response rating, Rice (rice (Oryza sativa); [11]): 65 | Rice plant response rating (rice (Oryza sativa)): 0 | Plant response rating, Flood, Ducksalad [3]: 100 | Plant response rating, Ducksalad [3, 16]: 100 | Plant response rating, Ducksalad [3, 11]: 100 | Ducksalad plant response rating [3]: 85 | Plant response rating, Foxtail, Giant [4, 17]: 80 | Foxtail, Giant plant response rating [4, 13]: 100 | Plant response rating, Foxtail, Giant [4, 18]: 90 | Plant response rating, Foxtail, Giant [4, 15]: 90 | Plant response rating, Morningglory [5, 17]: 90 | Morningglory plant response rating [5, 13]: 100 | Plant response rating, Morningglory [5, 18]: 20 | Plant response rating, Morningglory [5, 15]: 60 | Plant response rating, Barnyardgrass [6, 12]: 70 | Barnyardgrass plant response rating ([6]; Postemergence, 500 g ai/ha): 100 | Plant response rating, Barnyardgrass [6, 18]: 10 | Plant response rating, Barnyardgrass [6, 15]: 100 | Plant response rating, Wheat [7, 17]: 0 | Wheat plant response rating [7, 13]: 50 | Plant response rating, Wheat [7, 18]: 0 | Plant response rating, Wheat [7, 15]: 50 | Plant response rating, Corn (corn (Zea mays); [12]): 0 | Corn plant response rating (corn (Zea mays); Postemergence, 500 g ai/ha): 90 | Plant response rating, Corn (corn (Zea mays); [18]): 0 | Plant response rating, Corn (corn (Zea mays); [15]): 50 | Plant response rating, Velvetleaf [8, 17]: 100 | Velvetleaf plant response rating [8, 13]: 100 | Plant response rating, Velvetleaf [8, 18]: 90 | Plant response rating, Velvetleaf [8, 15]: 100 | Plant response rating, Pigweed [9, 17]: 90 | Pigweed plant response rating [9, 13]: 100 | Plant response rating, Pigweed [9, 18]: 100 | Plant response rating, Pigweed [9, 15]: 100 | Plant response rating, Crabgrass, Large [10, 12]: 70 | Crabgrass, Large plant response rating ([10]; Postemergence, 500 g ai/ha): 100 | Plant response rating, Crabgrass, Large [10, 18]: 100 | Plant response rating, Crabgrass, Large [10, 15]: 100

— patent US8952024B2, “Herbicidal pyrimidone derivatives” (E I du Pont de Nemours and Company, priority 2009, dated 2015)
